The subject of data set [1] is recombinant NL4-3 virus (nef section replaced with Renilla luciferase gene) in MT-2 cells. Briefly: HIV cell culture assay (antiviral activity, luciferase readout). It is filed as cell-based. To be noted: Renilla, NL43, MT-2 cells infected for 4-5 days with recombinant NL4-3 Renilla luciferase virus, serial dilutions of compound. The procedure, abridged: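 Test compound in serial dilution was present while MT-2 cells were infected for 4–5 days with recombinant NL4-3 virus made in 293T cells. Antiviral activity was quantified as Renilla luciferase activity, read with a live-cell substrate. EC50 came from the median-effect equation.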

Data set [2] in a line: Compound cytotoxicity, XTT-based colorimetric assay. It is filed as cell-based. The note with it: human, uninfected MT2 cells, day 4, XTT. The essentials:
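Run under the antiviral-assay protocol but without virus. Viability was read on day 4 and CC50 values were derived from the readout.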

Regarding `Cn1nc(NS(C)(=O)=O)c2c(Cl)ccc(-n3c([C@H](Cc4cc(F)cc(F)c4)NC(=O)Cn4nc(C(F)F)c5c4C(F)(F)[C@@H]4C[C@H]54)nc4cc(-c5cnccn5)ccc4c3=O)c21` (atropisomer, axis not shown; (aR)) [Example 39, N-((S)-1-(3-(4-chloro-1-methyl-3-(methylsulfonamido)-1H-indazol-7-yl)-4-oxo-7-(pyrazin-2-yl)-3,4-dihydroquinazolin-2-yl)-2-(3,5-difluorophenyl)ethyl)-2-((3bS,4aR)-3-(difluoromethyl)-5,5-difluoro-3b,4,4a,5-tetrahydro-1H-cyclopropa[3,4]cyclopenta[1,2-c]pyrazol-1-yl)acetamide], the EC50 in data set [1] was 0.052 nM. This compound came in with a 50% cytotoxic concentration (CC50) at 4 day in data set [2] of more than 1000 nM.

Regarding `Cc1cc(F)ccc1-c1ccc2c(=O)n(-c3ccc(S(=O)(=O)N4CCOCC4)cc3)c([C@H](Cc3cc(F)cc(F)c3)NC(=O)Cn3ccc(C4CC4)n3)nc2c1` [Example 102, (S)-2-(3-cyclopropyl-1H-pyrazol-1-yl)-N-(2-(3,5-difluorophenyl)-1-(7-(4-fluoro-2-methylphenyl)-3-(4-(morpholinosulfonyl)phenyl)-4-oxo-3,4-dihydroquinazolin-2-yl)ethyl)acetamide], in data set [1], the EC50 was 48 nM. The compound also gave a CC50 at 4 day in data set [2] of more than 1000 nM.

Regarding `Cn1nc(NS(C)(=O)=O)c2c(Cl)ccc(-n3c([C@H](Cc4cc(F)cc(F)c4)NC(=O)Cn4nc(C(F)F)c5c4C(F)(F)[C@@H]4C[C@H]54)nc4cc(-c5ccccc5Cl)ccc4c3=O)c21` (atropisomer, axis not shown; (aR)) [Example 43, N-((S)-1-(3-(4-chloro-1-methyl-3-(methylsulfonamido)-1H-indazol-7-yl)-7-(2-chlorophenyl)-4-oxo-3,4-dihydroquinazolin-2-yl)-2-(3,5-difluorophenyl)ethyl)-2-((3bS,4aR)-3-(difluoromethyl)-5,5-difluoro-3b,4,4a,5-tetrahydro-1H-cyclopropa[3,4]cyclopenta[1,2-c]pyrazol-1-yl)acetamide], the EC50 in data set [1] was 0.69 nM. For the same compound, in data set [2], the CC50 at 4 day is more than 1000 nM.

As for `O=C(Cn1nc(C(F)F)c2c1C(F)(F)[C@@H]1C[C@H]21)N[C@@H](Cc1cc(F)cc(F)c1)c1nc2cc(-c3cccnc3)ccc2c(=O)n1-c1ccc(S(=O)(=O)N2CCOCC2)cc1` [Example 24, 2-((3bS,4aR)-3-(difluoromethyl)-5,5-difluoro-3b,4,4a,5-tetrahydro-1H-cyclopropa[3,4]cyclopenta[1,2-c]pyrazol-1-yl)-N-((S)-2-(3,5-difluorophenyl)-1-(3-(4-(morpholinosulfonyl)phenyl)-4-oxo-7-(pyridin-3-yl)-3,4-dihydroquinazolin-2-yl)ethyl)acetamide], in data set [1], the concentration giving a half-maximal response (EC50) came to 4.3 nM. Besides, in data set [2], the CC50 at 4 day was more than 1000 nM.

For the compound `Cn1nc(NS(C)(=O)=O)c2c(Cl)ccc(-n3c([C@H](Cc4cc(F)cc(F)c4)NC(=O)Cn4nc(C(F)F)c5c4C(F)(F)[C@@H]4C[C@H]54)nc4cc(-c5ccccc5)ccc4c3=O)c21` [Example 195, N-((S)-1-(3-(4-chloro-1-methyl-3-(methylsulfonamido)-1H-indazol-7-yl)-4-oxo-7-phenyl-3,4-dihydroquinazolin-2-yl)-2-(3,5-difluorophenyl)ethyl)-2-((3bS,4aR)-3-(difluoromethyl)-5,5-difluoro-3b,4,4a,5-tetrahydro-1H-cyclopropa[3,4]cyclopenta[1,2-c]pyrazol-1-yl)acetamide], the concentration giving a half-maximal response (EC50) in data set [1] stood at 0.36 nM. In data set [2], this compound showed a CC50 at 4 day of more than 1000 nM.

For the compound `Cn1nc(NS(C)(=O)=O)c2c(Cl)ccc(-n3c([C@H](Cc4cc(F)cc(F)c4)NC(=O)Cn4nc(C(F)F)c5c4C(F)(F)[C@@H]4C[C@H]54)nc4cc(-c5cc(F)ccc5F)ccc4c3=O)c21` (atropisomer, axis not shown; (aR)) [Example 99, N-((S)-1-(3-(4-chloro-1-methyl-3-(methylsulfonamido)-1H-indazol-7-yl)-7-(2,5-difluorophenyl)-4-oxo-3,4-dihydroquinazolin-2-yl)-2-(3,5-difluorophenyl)ethyl)-2-((3bS,4aR)-3-(difluoromethyl)-5,5-difluoro-3b,4,4a,5-tetrahydro-1H-cyclopropa[3,4]cyclopenta[1,2-c]pyrazol-1-yl)acetamide], the EC50 in data set [1] came to 0.68 nM. In addition, the CC50 at 4 day in data set [2] was more than 1000 nM.

Take `O=C(Cn1ccc(C2CC2)n1)N[C@@H](Cc1cc(F)cc(F)c1)c1nc2cc(-c3cccc(-c4ccccc4)c3)ccc2c(=O)n1-c1ccc(S(=O)(=O)N2CCOCC2)cc1` [Example 147, (S)-N-(1-(7-([1,1′-biphenyl]-3-yl)-3-(4-(morpholinosulfonyl)phenyl)-4-oxo-3,4-dihydroquinazolin-2-yl)-2-(3,5-difluorophenyl)ethyl)-2-(3-cyclopropyl-1H-pyrazol-1-yl)acetamide]: the concentration giving a half-maximal response (EC50) in data set [1] came out at 121 nM. This compound gave a 50% cytotoxic concentration (CC50) at 4 day in data set [2] of more than 1000 nM.

In the case of `Cn1nc(NS(C)(=O)=O)c2c(Cl)ccc(-n3c([C@H](Cc4cc(F)cc(F)c4)NC(=O)Cn4nc(C(F)F)c5c4C(F)(F)[C@@H]4C[C@H]54)nc4cc(-c5ccc(Cl)cc5)ccc4c3=O)c21` (atropisomer, axis not shown; (aR)) [Example 51, N-((S)-1-(3-(4-chloro-1-methyl-3-(methylsulfonamido)-1H-indazol-7-yl)-7-(4-chlorophenyl)-4-oxo-3,4-dihydroquinazolin-2-yl)-2-(3,5-difluorophenyl)ethyl)-2-((3bS,4aR)-3-(difluoromethyl)-5,5-difluoro-3b,4,4a,5-tetrahydro-1H-cyclopropa[3,4]cyclopenta[1,2-c]pyrazol-1-yl)acetamide], the EC50 in data set [1] came out at 3.3 nM. Besides, the 50% cytotoxic concentration (CC50) at 4 day in data set [2] is more than 1000 nM.

On to `Cn1nc(NS(C)(=O)=O)c2c(Cl)ccc(-n3c([C@H](Cc4cc(F)cc(F)c4)NC(=O)Cn4nc(C(F)F)c5c4C(F)(F)[C@@H]4C[C@H]54)nc4cc(-c5ccc(F)c(C(=O)O)c5)ccc4c3=O)c21` (atropisomer, axis not shown; (aR)) [Example 38, 5-(3-(4-chloro-1-methyl-3-(methylsulfonamido)-1H-indazol-7-yl)-2-((S)-1-(2-((3bS,4aR)-3-(difluoromethyl)-5,5-difluoro-3b,4,4a,5-tetrahydro-1H-cyclopropa[3,4]cyclopenta[1,2-c]pyrazol-1-yl)acetamido)-2-(3,5-difluorophenyl)ethyl)-4-oxo-3,4-dihydroquinazolin-7-yl)-2-fluorobenzoic acid], for which, in data set [1], the EC50 was determined as 10 nM. The compound further came in with a CC50 at 4 day in data set [2] of more than 1000 nM.

For the compound `CCS(=O)(=O)c1ccccc1-c1ccc2c(=O)n(-c3ccc(Cl)c4c(NS(C)(=O)=O)nn(CC(F)F)c34)c([C@H](Cc3cc(F)cc(F)c3)NC(=O)Cn3nc(C(F)F)c4c3C(F)(F)[C@@H]3C[C@H]43)nc2c1` [Example 177, N-((S)-1-(3-(4-chloro-1-(2,2-difluoroethyl)-3-(methylsulfonamido)-1H-indazol-7-yl)-7-(2-(ethylsulfonyl)phenyl)-4-oxo-3,4-dihydroquinazolin-2-yl)-2-(3,5-difluorophenyl)ethyl)-2-((3bS,4aR)-3-(difluoromethyl)-5,5-difluoro-3b,4,4a,5-tetrahydro-1H-cyclopropa[3,4]cyclopenta[1,2-c]pyrazol-1-yl)acetamide], in data set [1], the EC50 was 0.053 nM. The half-maximal cytotoxic concentration (CC50) at 4 day in data set [2] was more than 500 nM.

For the compound `O=C(Cn1ccc(C2CC2)n1)N[C@@H](Cc1cc(F)cc(F)c1)c1nc2cc(-c3ccccc3Cl)ccc2c(=O)n1-c1ccc(S(=O)(=O)N2CCOCC2)cc1` [Example 145, (S)-N-(1-(7-(2-chlorophenyl)-3-(4-(morpholinosulfonyl)phenyl)-4-oxo-3,4-dihydroquinazolin-2-yl)-2-(3,5-difluorophenyl)ethyl)-2-(3-cyclopropyl-1H-pyrazol-1-yl)acetamide], the 50% effective concentration (EC50) in data set [1] was found to be 16 nM. The compound also had a CC50 at 4 day in data set [2] of more than 500 nM.

Consider `Cn1nc(NS(C)(=O)=O)c2c(Cl)ccc(-n3c([C@H](Cc4cc(F)cc(F)c4)NC(=O)Cn4nc(C(F)F)c5c4C(F)(F)[C@@H]4C[C@H]54)nc4cc(-c5ccccn5)ccc4c3=O)c21` (atropisomer, axis not shown; (aR)) [Example 87, N-((S)-1-(3-(4-chloro-1-methyl-3-(methylsulfonamido)-1H-indazol-7-yl)-4-oxo-7-(pyridin-2-yl)-3,4-dihydroquinazolin-2-yl)-2-(3,5-difluorophenyl)ethyl)-2-((3bS,4aR)-3-(difluoromethyl)-5,5-difluoro-3b,4,4a,5-tetrahydro-1H-cyclopropa[3,4]cyclopenta[1,2-c]pyrazol-1-yl)acetamide], for which, in data set [1], the 50% effective concentration (EC50) was 0.09 nM. For the same compound, in data set [2], the CC50 at 4 day is more than 1000 nM.

As to `Cc1cc(C)nc(-c2ccc3c(=O)n(-c4ccc(Cl)c5c(NS(C)(=O)=O)nn(CC(F)F)c45)c([C@H](Cc4cc(F)cc(F)c4)NC(=O)Cn4nc(C(F)F)c5c4C(F)(F)[C@@H]4C[C@H]54)nc3c2)n1` (atropisomer, axis not shown; (aR)) [Example 128, N-((S)-1-(3-(4-chloro-1-(2,2-difluoroethyl)-3-(methylsulfonamido)-1H-indazol-7-yl)-7-(4,6-dimethylpyrimidin-2-yl)-4-oxo-3,4-dihydroquinazolin-2-yl)-2-(3,5-difluorophenyl)ethyl)-2-((3bS,4aR)-3-(difluoromethyl)-5,5-difluoro-3b,4,4a,5-tetrahydro-1H-cyclopropa[3,4]cyclopenta[1,2-c]pyrazol-1-yl)acetamide], the EC50 in data set [1] amounted to 0.069 nM. In data set [2], this compound returned a half-maximal cytotoxic concentration (CC50) at 4 day of more than 500 nM.

For the origin of these results see patent publication US11505543B2, “4-oxo-3,4-dihydroquinazoline compounds as inhibitors of human immunodeficiency virus replication” (VIIV HEALTHCARE UK (NO.5) LIMITED, priority 2018, dated 2022).
